# Columns and labels:
# [1] = Heavy metal removal ability test in contaminated soil (ICP-MS), arsenic; details: for Arsenic (As) Adsorption amount: contaminated soil; for Arsenic (As) Adsorption rate: relative to EDTA control
# Procedure, shortened: (§1)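 Sieved soil spiked with aqueous heavy metal, mixed 5 min with 3 ml of test solution, then extracted with 50 ml distilled water (20 min stirring, 1 h settling). Supernatant metal measured by ICP-MS; adsorption rate (%) expressed relative to control.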
# [2] = Heavy metal removal ability test in contaminated soil (ICP-MS), nickel; details: for Nickel (Ni) Adsorption amount: contaminated soil; for Nickel (Ni) Adsorption rate: relative to EDTA control
# Procedure, shortened: as §1
# [3] = Formaldehyde (formalin) removing ability test (GC); details: 2.0% formaldehyde solution, 3 molar equivalents of compound, room temperature; for Formaldehyde GC Area, 30 min: after 30 min; for Formaldehyde GC Area, 180 min: after 180 min; for Formaldehyde GC Area, Initial: initial state
# [4] = system: human skin; assay: Skin irritation test of active ingredient (patch method, CTFA guidelines); assay type: in vivo; details: 24 h patch; for Test result (number of subject) (+) / Test result (number of subject) (++) / Test result (number of subject) (±) / Test result (number of subject) (−): 20 people; for Test result (number of subject) (+): (+) apparent reddening; for Test result (number of subject) (++): (++) more reddened and swollen; for Test result (number of subject) (±): (±) slightly reddish; for Test result (number of subject) (−): (−) no erythema
# [5] = Heavy metal removal ability test in contaminated soil (ICP-MS), cadmium; details: for Cadmium (Cd) Adsorption amount: contaminated soil; for Cadmium (Cd) Adsorption rate: relative to EDTA control
# Procedure, shortened: as §1
# [6] = Heavy metal removal ability test in contaminated soil around a factory (WAK-Me test kit); details: 1.0 wt % aqueous solution, colour comparison test kit
# Experimental: The contaminated soil around the factory in the industrial complex was collected, pulverized, and meshed to prepare fine particles of soil samples.
# Each 3 ml of aqueous solutions for restoring soil was added to soil samples and mixed for 5 minutes.
Structure (SMILES),Arsenic (As) Adsorption amount ([1]; content 0.5% aqueous solution) [ppm],Arsenic (As) Adsorption rate ([1]; content 0.5%) [%],Arsenic (As) Adsorption amount ([1]; content 1.0% aqueous solution) [ppm],Arsenic (As) Adsorption rate ([1]; content 1.0%) [%],Arsenic (As) Adsorption amount ([1]; content 2.0% aqueous solution) [ppm],Arsenic (As) Adsorption rate ([1]; content 2.0%) [%],Nickel (Ni) Adsorption amount ([2]; content 0.5% aqueous solution) [ppm],Nickel (Ni) Adsorption rate ([2]; content 0.5%) [%],Nickel (Ni) Adsorption amount ([2]; content 1.0% aqueous solution) [ppm],Nickel (Ni) Adsorption rate ([2]; content 1.0%) [%],Nickel (Ni) Adsorption amount ([2]; content 2.0% aqueous solution) [ppm],Nickel (Ni) Adsorption rate ([2]; content 2.0%) [%],"Formaldehyde GC Area, 30 min [3] [mAU*min]","Formaldehyde GC Area, 180 min [3] [mAU*min]","Formaldehyde GC Area, Initial [3] [mAU*min]",Test result (number of subject) (+) ([4]; content 0.1 wt %),Test result (number of subject) (++) ([4]; content 0.1 wt %),Test result (number of subject) (±) ([4]; content 0.1 wt %),Test result (number of subject) (−) ([4]; content 0.1 wt %),Degree of irritation ([4]; content 0.1 wt %),also measured
"O=C(O)c1ccc(N2CCCN(c3ccc(C(=O)O)o3)CCN(c3ccc(C(=O)O)o3)CCCN(c3ccc(C(=O)O)o3)CC2)o1 [Embodiment 12, 5,5′,5″,5′″-(1,4,8,11-tetraazacyclotetradecane-1,4,8,11-tetrayl)tetrakis(furan-2-carboxylic Acid)]",41,164,43,172,46,184,77,157,84,171,89,182,0.170,0,0.305,0,0,0,20,0,"Grade for skin irritation ([4]; content 0.1 wt %): I (Degree of irritation 0-0.1: Grade I (unstimulated)); Test result (number of subject) (+) ([4]; content 0.5 wt %): 0; Test result (number of subject) (++) ([4]; content 0.5 wt %): 0; Test result (number of subject) (±) ([4]; content 0.5 wt %): 0; Test result (number of subject) (−) ([4]; content 0.5 wt %): 20; Degree of irritation ([4]; content 0.5 wt %): 0; Grade for skin irritation ([4]; content 0.5 wt %): I (Degree of irritation 0-0.1: Grade I (unstimulated)); Test result (number of subject) (+) ([4]; content 1.0 wt %): 0; Test result (number of subject) (++) ([4]; content 1.0 wt %): 0; Test result (number of subject) (±) ([4]; content 1.0 wt %): 1; Test result (number of subject) (−) ([4]; content 1.0 wt %): 19; Degree of irritation ([4]; content 1.0 wt %): 0.05; Grade for skin irritation ([4]; content 1.0 wt %): I (Degree of irritation 0-0.1: Grade I (unstimulated)); Cadmium (Cd) Adsorption amount ([5]; content 0.5% aqueous solution): 61 ppm; Cadmium (Cd) Adsorption rate ([5]; content 0.5%): 149%; Cadmium (Cd) Adsorption amount ([5]; content 1.0% aqueous solution): 67 ppm; Cadmium (Cd) Adsorption rate ([5]; content 1.0%): 163%; Cadmium (Cd) Adsorption amount ([5]; content 2.0% aqueous solution): 72 ppm; Cadmium (Cd) Adsorption rate ([5]; content 2.0%): 176%; Total amount (Cu, Zn, Mn, Ni, Cd) [6]: ≤5 ppm"
"NCCNCCNCCN [Trientine, Triethylenetetramine, reference compound]",49,196,52,208,59,236,102,208,115,235,131,267,0.168,0,0.305,0,0,0,20,0,"Grade for skin irritation ([4]; content 0.1 wt %): I (Degree of irritation 0-0.1: Grade I (unstimulated)); Test result (number of subject) (+) ([4]; content 0.5 wt %): 0; Test result (number of subject) (++) ([4]; content 0.5 wt %): 0; Test result (number of subject) (±) ([4]; content 0.5 wt %): 1; Test result (number of subject) (−) ([4]; content 0.5 wt %): 19; Degree of irritation ([4]; content 0.5 wt %): 0.05; Grade for skin irritation ([4]; content 0.5 wt %): I (Degree of irritation 0-0.1: Grade I (unstimulated)); Test result (number of subject) (+) ([4]; content 1.0 wt %): 0; Test result (number of subject) (++) ([4]; content 1.0 wt %): 0; Test result (number of subject) (±) ([4]; content 1.0 wt %): 3; Test result (number of subject) (−) ([4]; content 1.0 wt %): 17; Degree of irritation ([4]; content 1.0 wt %): 0.15; Grade for skin irritation ([4]; content 1.0 wt %): II (Degree of irritation 0.11-0.3: Grade II (weakly stimulated)); Cadmium (Cd) Adsorption amount ([5]; content 0.5% aqueous solution): 68 ppm; Cadmium (Cd) Adsorption rate ([5]; content 0.5%): 166%; Cadmium (Cd) Adsorption amount ([5]; content 1.0% aqueous solution): 75 ppm; Cadmium (Cd) Adsorption rate ([5]; content 1.0%): 183%; Cadmium (Cd) Adsorption amount ([5]; content 2.0% aqueous solution): 79 ppm; Cadmium (Cd) Adsorption rate ([5]; content 2.0%): 193%; Total amount (Cu, Zn, Mn, Ni, Cd) [6]: ≤5 (red) ppm"
